From patent US12679843B2, “Pyrrolopyrimidine amines as complement inhibitors” (BioCryst Pharmaceuticals, Inc., priority 2020, dated 2026) come the findings set out here.

Chain of Factor D (P00746 26-253): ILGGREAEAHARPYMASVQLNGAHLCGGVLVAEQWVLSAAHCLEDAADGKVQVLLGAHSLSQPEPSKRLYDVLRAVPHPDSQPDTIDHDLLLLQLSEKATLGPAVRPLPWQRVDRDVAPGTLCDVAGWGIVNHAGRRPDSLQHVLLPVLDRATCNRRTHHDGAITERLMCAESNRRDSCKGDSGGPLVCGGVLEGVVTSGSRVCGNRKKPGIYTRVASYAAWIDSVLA

For this assay, the target named is Factor D (Homo sapiens, UniProt P00746). Put plainly: Factor D esterolytic assay (Z-Lys-SBzl thioester substrate, DTNB, 405 nm). Type of assay: biochemical. The note with it: substrate Z-Lys-SBzl 1.29 mM, 100 mM HEPES, 500 mM NaCl, pH 7.5, 10% DMSO, tested a minimum of three times. In short, it runs like this:
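Run in pH 7.5 HEPES (100 mM) with 500 mM NaCl and 10% DMSO, with compound preincubated at room temperature or not before adding 1.29 mM Z-Lys-SBzl. Free thiol released by Factor D reacts with DTNB, and rate is followed at 405 nm minus 690 nm over 600 s. IC50 derives from rate-based inhibition, minimum three replicates.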
What is called IC50 is the concentration needed to halve the response being measured. In the case of `C[C@@]12C[C@@H](C(=O)Nc3cccc(Br)n3)N(C(=O)Cn3c4cc(C(F)(F)F)ccc4c4c(N)ncnc43)[C@@H]1C2` [Compound 199a, (1R,3S,5R)-2-(2-(4-amino-7-(trifluoromethyl)-9H-pyrimido[4,5-b]indol-9-yl)acetyl)-N-(6-bromopyridin-2-yl)-5-methyl-2-azabicyclo[3.1.0]hexane-3-carboxamide], the 50% inhibitory concentration (IC50) was less than 100 nM.

For `Nc1ncnc2c1ncn2CC(=O)N1[C@@H]2C[C@@H]2C[C@H]1C(=O)OCc1ccccc1` [Compound 94b, (1R,3S,5R)-benzyl 2-(2-(6-amino-9H-purin-9-yl)acetyl)-2-azabicyclo[3.1.0]hexane-3-carboxylate], the IC50 was greater than 1000 nM.

For `Nc1ncnc2c1c1cc(-c3cccnc3)ccc1n2CC(=O)N1[C@@H]2C[C@@H]2C[C@H]1C(=O)Nc1cccc(Br)n1` [Compound 273c, (1R,3S,5R)-2-(2-(4-amino-6-(pyridin-3-yl)-9H-pyrimido[4,5-b]indol-9-yl)acetyl)-N-(6-bromopyridin-2-yl)-2-azabicyclo[3.1.0]hexane-3-carboxamide], the IC50 is less than 100 nM. The result for `Nc1ncnc2c1c1nc(Br)ccc1n2CC(=O)N1[C@@H]2C[C@@H]2C[C@H]1C(=O)Nc1cccc(Br)n1` [Compound 290g, (1R,3S,5R)-2-(2-(4-amino-6-bromo-9H-pyrido[2′,3′:4,5]pyrrolo[2,3-d]pyrimidin-9-yl)acetyl)-N-(6-bromopyridin-2-yl)-2-azabicyclo[3.1.0]hexane-3-carboxamide] reads less than 100 nM; that for `Cc1cc2c(cc1F)c1c(N)ncnc1n2CC(=O)N1[C@@H]2C[C@@H]2C[C@H]1C(=O)Nc1cccc(Br)n1` [Compound 381g, (1R,3S,5R)-2-(2-(4-amino-6-fluoro-7-methyl-9H-pyrimido[4,5-b]indol-9-yl)acetyl)-N-(6-bromopyridin-2-yl)-2-azabicyclo[3.1.0]hexane-3-carboxamide], less than 100 nM; that for `Nc1ncnc2c1c(-c1cccnc1)cn2CC(=O)N1C[C@H](F)C[C@H]1C(=O)NCc1cccc(Cl)c1F` [Compound 114f, (2S,4R)-1-(2-(4-amino-5-(pyridin-3-yl)-7H-pyrrolo[2,3-d]pyrimidin-7-yl)acetyl)-N-(3-chloro-2-fluorobenzyl)-4-fluoropyrrolidine-2-carboxamide], less than 100 nM. The result for `COC(=O)c1ccc2c3c(N)ncnc3n(CC(=O)N3[C@H](C(=O)Nc4cccc(Br)n4)C[C@@]4(C)C[C@@H]34)c2c1` [Compound 42a, methyl 4-amino-9-(2-((1R,3S,5R)-3-((6-bromopyridin-2-yl)carbamoyl)-5-methyl-2-azabicyclo[3.1.0]hexan-2-yl)-2-oxoethyl)-9H-pyrimido[4,5-b]indole-7-carboxylate] reads less than 100 nM. The same measure for `Cc1cccc2c1c1c(N)ncnc1n2CC(=O)N1[C@@H]2C[C@@H]2C[C@H]1C(=O)Nc1cccc(Br)n1` [Compound 56g, (1R,3S,5R)-2-(2-(4-amino-5-methyl-9H-pyrimido[4,5-b]indol-9-yl)acetyl)-N-(6-bromopyridin-2-yl)-2-azabicyclo[3.1.0]hexane-3-carboxamide]: 100 to 1000 nM. In the case of `CC1CC(CNC(=O)[C@@H]2C[C@H]3C[C@H]3N2C(=O)Cn2cnc3c(N)ncnc32)C1` (stereo partly drawn) [Compound 100b, (1R,3S,5R)-2-(2-(6-amino-9H-purin-9-yl)acetyl)-N-((3-methylcyclobutyl)methyl)-2-azabicyclo[3.1.0]hexane-3-carboxamide], the IC50 was greater than 1000 nM.

As for `Cc1nc(C(F)(F)F)cc2c3c(N)ncnc3n(CC(=O)N3[C@H](C(=O)Nc4cncc(Br)n4)C[C@@]4(C)C[C@@H]34)c12` [Compound 350a, (1R,3S,5R)-2-(2-(4-amino-8-methyl-6-(trifluoromethyl)-9H-pyrido[4′,3′:4,5]pyrrolo[2,3-d]pyrimidin-9-yl)acetyl)-N-(6-bromopyrazin-2-yl)-5-methyl-2-azabicyclo[3.1.0]hexane-3-carboxamide], the concentration for half-maximal inhibition (IC50) was less than 100 nM.

As for `Nc1ncnc2c1c1cc(C(F)(F)F)ccc1n2CC(=O)N1C[C@H](F)C[C@H]1C(=O)NCc1cccc(Cl)c1F` [Compound 25a, (2S,4R)-1-(2-(4-amino-6-(trifluoromethyl)-9H-pyrimido[4,5-b]indol-9-yl)acetyl)-N-(3-chloro-2-fluorobenzyl)-4-fluoropyrrolidine-2-carboxamide], the IC50 was less than 100 nM.

For `Cc1cc(-c2ccc(C(F)(F)F)nc2)cc2c3c(N)ncnc3n(CC(=O)N3[C@@H]4C[C@@H]4C[C@H]3C(=O)Nc3cccc(Br)n3)c12` [Compound 356c, (1R,3S,5R)-2-(2-(4-amino-8-methyl-6-(6-(trifluoromethyl)pyridin-3-yl)-9H-pyrimido[4,5-b]indol-9-yl)acetyl)-N-(6-bromopyridin-2-yl)-2-azabicyclo[3.1.0]hexane-3-carboxamide], the IC50 is less than 100 nM. The same measure for `Cc1ncc(NC(=O)[C@@H]2C[C@@]3(C)C[C@H]3N2C(=O)Cn2c3ncnc(N)c3c3cc(C(F)(F)F)cc(C)c32)nc1Br` [Compound 364d, (1R,3S,5R)-2-(2-(4-amino-8-methyl-6-(trifluoromethyl)-9H-pyrimido[4,5-b]indol-9-yl)acetyl)-N-(6-bromo-5-methylpyrazin-2-yl)-5-methyl-2-azabicyclo[3.1.0]hexane-3-carboxamide]: less than 100 nM; for `C[C@@]12C[C@@H](C(=O)Nc3cccc(Br)n3)N(C(=O)Cn3c4ncnc(N)c4c4cc(Br)cc(F)c43)[C@@H]1C2` [Compound 377a, (1R,3S,5R)-2-(2-(4-amino-6-bromo-8-fluoro-9H-pyrimido[4,5-b]indol-9-yl)acetyl)-N-(6-bromopyridin-2-yl)-5-methyl-2-azabicyclo[3.1.0]hexane-3-carboxamide]: less than 100 nM. Turning to `Nc1ncnc2c1c1ccc(-c3ccccc3)cc1n2CC(=O)N1[C@@H]2C[C@@H]2C[C@H]1C(=O)Nc1cccc(Br)n1` [Compound 227c, (1R,3S,5R)-2-(2-(4-amino-7-phenyl-9H-pyrimido[4,5-b]indol-9-yl)acetyl)-N-(6-bromopyridin-2-yl)-2-azabicyclo[3.1.0]hexane-3-carboxamide], the IC50 is less than 100 nM. The same measure for `Nc1ncnc2c1c1cc(C(F)(F)F)ccc1n2CC(=O)N1CC2(CC2)C[C@H]1C(=O)Nc1cccc(Br)n1` [Compound 53d, (S)-5-(2-(4-amino-6-(trifluoromethyl)-9H-pyrimido[4,5-b]indol-9-yl)acetyl)-N-(6-bromopyridin-2-yl)-5-azaspiro[2.4]heptane-6-carboxamide]: 100 to 1000 nM; for `Nc1ncnc2c1c1cccnc1n2CC(=O)N1[C@@H]2C[C@@H]2C[C@H]1C(=O)Nc1cccc(Br)n1` [Compound 162g, (1R,3S,5R)-2-(2-(4-amino-9H-pyrido[3′,2′:4,5]pyrrolo[2,3-d]pyrimidin-9-yl)acetyl)-N-(6-bromopyridin-2-yl)-2-azabicyclo[3.1.0]hexane-3-carboxamide]: less than 100 nM. For `C[C@@]12C[C@@H](C(=O)Nc3cccc(Br)n3)N(C(=O)Cn3c4ccc([N+](=O)[O-])cc4c4c(N)ncnc43)[C@@H]1C2` [Compound 202a, (1R,3S,5R)-2-(2-(4-amino-6-nitro-9H-pyrimido[4,5-b]indol-9-yl)acetyl)-N-(6-bromopyridin-2-yl)-5-methyl-2-azabicyclo[3.1.0]hexane-3-carboxamide], the IC50 is less than 100 nM. As for `C[C@@]12C[C@@H](C(=O)Nc3cccc(Br)n3)N(C(=O)Cn3c4ccc(-c5ccco5)cc4c4c(N)ncnc43)[C@@H]1C2` [Compound 336c, (1R,3S,5R)-2-(2-(4-amino-6-(furan-2-yl)-9H-pyrimido[4,5-b]indol-9-yl)acetyl)-N-(6-bromopyridin-2-yl)-5-methyl-2-azabicyclo[3.1.0]hexane-3-carboxamide], the IC50 was less than 100 nM.

As to `COc1cc(OC)c2c(c1)c1c(N)ncnc1n2CC(=O)N1[C@H](C(=O)Nc2cccc(Br)n2)C[C@@]2(C)C[C@@H]12` [Compound 279a, (1R,3S,5R)-2-(2-(4-amino-6,8-dimethoxy-9H-pyrimido[4,5-b]indol-9-yl)acetyl)-N-(6-bromopyridin-2-yl)-5-methyl-2-azabicyclo[3.1.0]hexane-3-carboxamide], the IC50 was less than 100 nM.

Consider `COC(=O)c1cc(OC)c2c(c1)c1c(N)ncnc1n2CC(=O)N1[C@@H]2C[C@@H]2C[C@H]1C(=O)Nc1cccc(Br)n1` [Compound 240g, methyl 4-amino-9-(2-((1R,3S,5R)-3-((6-bromopyridin-2-yl)carbamoyl)-2-azabicyclo[3.1.0]hexan-2-yl)-2-oxoethyl)-8-methoxy-9H-pyrimido[4,5-b]indole-6-carboxylate], for which the IC50 was less than 100 nM.

`Nc1ncnc2c1ccn2CC(=O)N1[C@@H]2C[C@@H]2C[C@H]1C(=O)Nc1cccc(Br)n1` [Compound 80a, (1R,3S,5R)-2-(2-(4-amino-7H-pyrrolo[2,3-d]pyrimidin-7-yl)acetyl)-N-(6-bromopyridin-2-yl)-2-azabicyclo[3.1.0]hexane-3-carboxamide]: the IC50 was less than 100 nM. `Nc1ncnc2c1c1cc(C(=O)NCC3CC3)ccc1n2CC(=O)N1[C@@H]2C[C@@H]2C[C@H]1C(=O)Nc1cccc(Br)n1` [Compound 169f, 4-amino-9-(2-((1R,3S,5R)-3-((6-bromopyridin-2-yl)carbamoyl)-2-azabicyclo[3.1.0]hexan-2-yl)-2-oxoethyl)-N-(cyclopropylmethyl)-9H-pyrimido[4,5-b]indole-6-carboxamide]: the IC50 is less than 100 nM. On to `COc1cc2c(cc1C)c1c(N)ncnc1n2CC(=O)N1[C@H](C(=O)Nc2cccc(Br)n2)C[C@@]2(C)C[C@@H]12` [Compound 329a, (1R,3S,5R)-2-(2-(4-amino-7-methoxy-6-methyl-9H-pyrimido[4,5-b]indol-9-yl)acetyl)-N-(6-bromopyridin-2-yl)-5-methyl-2-azabicyclo[3.1.0]hexane-3-carboxamide], for which the IC50 was less than 100 nM.
